Experimental data from patent US9045461B2, “Phenyl-heteroaryl derivatives and methods of use thereof” (TransTech Pharma, LLC, priority 2010, dated 2015).
pIC50: −log10 of the molar value. Structures can show the parent of a compound that is named as a salt.

Legend:
sRAGE binding to S100b = biological target: T1, sRAGE binding to S100b (Homo sapiens, UniProt Q15109); assay: RAGE binding assay (ELISA), S100b as the RAGE ligand; details: compounds tested in hydrochloride salt form, concentration at which 50% signal has been inhibited
T1 construct: extracellular domain can be isolated by proteolysis of RAGE to generate soluble RAGE (sRAGE) comprised of the V and C domains
T1 sequence (Q15109 23-342 limits assumed): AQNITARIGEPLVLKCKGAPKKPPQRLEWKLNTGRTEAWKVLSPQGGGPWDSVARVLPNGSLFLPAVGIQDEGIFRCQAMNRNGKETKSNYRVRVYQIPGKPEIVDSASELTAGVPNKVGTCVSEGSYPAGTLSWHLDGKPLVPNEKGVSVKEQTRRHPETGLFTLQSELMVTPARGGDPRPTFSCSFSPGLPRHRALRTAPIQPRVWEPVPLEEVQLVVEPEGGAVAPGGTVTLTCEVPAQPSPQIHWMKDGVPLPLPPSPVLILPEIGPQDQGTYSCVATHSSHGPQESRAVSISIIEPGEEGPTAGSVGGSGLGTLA
Method: (§1) The following assay method may be used to identify compounds of Formula (I) or pharmaceutically acceptable salts thereof which are useful as inhibitors of binding of physiological RAGE ligands, such as S100b and β-amyloid, to RAGE.
(§2) S100b, β-amyloid, or CML (500 ng/100 μL/well) in 100 mM sodium bicarbonate/sodium carbonate buffer (pH 9.8) is loaded onto the wells of a NUNC Maxisorp flat bottom 96-well microtitre plate. The plate is incubated at 4° C. overnight. The wells are aspirated and treated with 50 mM imidazole buffer saline (pH 7.2) (with 5 mM CaCl2/MgCl2) containing 1% bovine serum albumin (BSA) (300 μL/well) for 1 h at RT. The wells are aspirated.
(§3) Test compounds are dissolved in nanopure water (concentration: 10-100 μM). DMSO may be used as co-solvent. 25 μL of test compound solution in 4% DMSO is added, along with 75 μL sRAGE (6 nM FAC) to each well and samples are incubated for 1 h at 37° C. The wells are washed several times with 155 mM NaCl pH 7.2 buffer saline and are soaked for several seconds between each wash.
(§4) Non-radioactive detection is performed by adding:
(§5) 10 μL Biotinylated goat F(ab′)2 Anti-mouse IgG. (8.0×10-4 mg/mL, FAC), 5 μL Alk-phos-Streptavidin (3×10-3 mg/mL FAC), 0.42 μL per 5 mL Monoclonal antibody for sRAGE (FAC 6.0×10-3 mg/mL) to 5 mL 50 mM imidazole buffer saline (pH 7.2) containing 0.2% bovine serum albumin and 5 mM CaCl2. The mixture is incubated for 30 minutes at RT.
(§6) 100 μL of complex is added to each well and incubation is allowed to proceed at rt for 1 h. Wells are washed several times with wash buffer and soaked several seconds between each wash. 100 μL 1 mg/mL (pNPP) in 1 M diethanolamine (pH adjusted to 9.8 with HCl) is added. Color is allowed to develop in the dark for 30 min to 1 h at rt. The reaction is quenched with 10 μL of stop solution (0.5-1.0 N NaOH in 50% ethanol) and the absorbance is measured spectrophotometrically with a microplate reader at 405 nm.
(§7) The IC50 (μM) value in the ELISA assay represents the concentration of compound at which 50% signal has been inhibited.

[1] = biological target: T2, sRAGE binding to β-amyloid (Homo sapiens, UniProt Q15109); assay: RAGE binding assay (ELISA), β-amyloid as the RAGE ligand; details: compounds tested in hydrochloride salt form, concentration at which 50% signal has been inhibited
T2 construct: extracellular domain can be isolated by proteolysis of RAGE to generate soluble RAGE (sRAGE) comprised of the V and C domains
T2 sequence (Q15109 23-342 limits assumed): as above
Method: as §1, §2, §3, §4, §5, §6, §7

pIC50 (sRAGE binding to S100b)	pIC50 [1]	SMILES
5.58	5.61	CCCCc1nnc(OC2CCN(C)CC2CO)cc1-c1ccc(OC2CCCCC2)cc1 (stereo not drawn) [Example 38, {4-[6-Butyl-5-(4-cyclohexyloxy-phenyl)-pyridazin-3-yloxy]-1-methyl-piperidin-3-yl}-methanol dihydrochloride]
5.91	5.82	CCCCc1nnc(OCC2CN(C)CCC2(F)F)cc1-c1ccc(OC2CCCCC2)cc1 (stereo not drawn) [Example 39, 3-Butyl-4-(4-cyclohexyloxy-phenyl)-6-(4,4-difluoro-1-methyl-piperidin-3-ylmethoxy)-pyridazine dihydrochloride]
5.53	5.66	CCCCc1c(-c2ccc(OC3CCCCC3)cc2)cc(OC2CCN(C)CC2)n[n+]1[O-] [Example 40, 3-Butyl-4-(4-cyclohexyloxy-phenyl)-6-(1-methyl-piperidin-4-yloxy)-pyridazine 2-oxide hydrochloride]
5.94	6.30	CCCCc1nnc(OCC2(F)CCN(C)CC2)cc1-c1ccc(OC2CCCCC2)cc1 [Example 45, 3-Butyl-4-(4-cyclohexyloxy-phenyl)-6-(4-fluoro-1-methyl-piperidin-4-ylmethoxy)-pyridazine dihydrochloride]
5.40	5.20	CCCCc1nnc(OC2CCN(C)CC2)cc1-c1ccc(OC(C)C)cc1 [Example 49, 3-Butyl-4-(4-isopropoxy-phenyl)-6-(1-methyl-piperidin-4-yloxy)-pyridazine dihydrochloride]
5.85	5.71	CCCCc1nnc(OC2CCN(C)CC2)cc1-c1ccc(OCc2ccc(Cl)cc2)cc1 [Example 50, 3-butyl-4-[4-(4-chloro-benzyloxy)-phenyl]-6-(1-methyl-piperidin-4-yloxy)-pyridazine dihydrochloride]
5.53	5.58	CCCCc1nnc(OC2CCN(C)CC2)cc1-c1ccc(OC2CCCC2)cc1 [Example 51, 3-butyl-4-(4-cyclopentyloxy-phenyl)-6-(1-methyl-piperidin-4-yloxy)-pyridazine dihydrochloride]
6.19	6.16	CCCCc1nnc(OC2CCN(C)CC2)cc1-c1ccc(OCCC2CCCCC2)cc1 [Example 52, 3-butyl-4-[4-(2-cyclohexyl-ethoxy)-phenyl]-6-(1-methyl-piperidin-4-yloxy)-pyridazine dihydrochloride]
5.60	5.69	CCCCc1nnc(OC2CCN(C)CC2)cc1-c1ccc(OCc2cccnn2)cc1 [Example 53, 3-butyl-6-(1-methyl-piperidin-4-yloxy)-4-[4-(pyridazin-3-ylmethoxy)-phenyl]-pyridazine trihydrochloride]
5.44	5.26	CCCCc1nnc(OC2CCN(C)CC2)cc1-c1ccc(OCC2CCOCC2)cc1 [Example 54, 3-butyl-6-(1-methyl-piperidin-4-yloxy)-4-[4-(tetrahydro-pyran-4-ylmethoxy)-phenyl]-pyridazine dihydrochloride]
5.43	5.04	CCCCc1nnc(OC2CCN(C)CC2)cc1-c1ccc(OCC2CCN(C(C)=O)CC2)cc1 [Example 55, 1-(4-{4-[3-butyl-6-(1-methyl-piperidin-4-yloxy)-pyridazin-4-yl]-phenoxymethyl}-piperidin-1-yl)-ethanone dihydrochloride]
5.74	5.61	CCCCc1nnc(OC2CCN(C)CC2)cc1-c1ccc(OCC2CCC(C(=O)N(C)C)CC2)cc1 (stereo not drawn) [Example 56, 4-{4-[3-butyl-6-(1-methyl-piperidin-4-yloxy)-pyridazin-4-yl]-phenoxymethyl}-cyclohexanecarboxylic acid dimethylamide dihydrochloride]
5.49	5.34	CCCCc1nnc(OC2CCN(C)CC2)cc1-c1ccc(Oc2ccc(C)nn2)cc1 [Example 57, 3-butyl-6-(1-methyl-piperidin-4-yloxy)-4-[4-(6-methyl-pyridazin-3-yloxy)-phenyl]-pyridazine trihydrochloride]
6.13	6.12	CCCCc1nnc(OC2CCN(C)CC2)c(C(F)(F)F)c1-c1ccc(OC2CCCCC2)cc1 [Example 58, 3-butyl-4-(4-cyclohexyloxy-phenyl)-6-(1-methyl-piperidin-4-yloxy)-5-trifluoromethyl-pyridazine dihydrochloride]
5.32	5.50	CN1CCC(Oc2cc(-c3ccc(OC4CCCCC4)cc3)c(C3CC3)nn2)CC1 [Example 59, 4-(4-cyclohexyloxy-phenyl)-3-cyclopropyl-6-(1-methyl-piperidin-4-yloxy)-pyridazine dihydrochloride]
5.95	5.74	CN1CCC(Oc2cc(-c3ccc(OC4CCCCC4)cc3)c(C3CCCCC3)nn2)CC1 [Example 60, 3-cyclohexyl-4-(4-cyclohexyloxy-phenyl)-6-(1-methyl-piperidin-4-yloxy)-pyridazine dihydrochloride]
5.47	5.43	CN1CCC(Oc2cc(-c3ccc(OC4CCCCC4)cc3)c(C3CCC3)nn2)CC1 [Example 61, 3-cyclobutyl-4-(4-cyclohexyloxy-phenyl)-6-(1-methyl-piperidin-4-yloxy)-pyridazine dihydrochloride]
5.44	5.30	CCCCc1nnc(OC2CCN(C)CC2)cc1-c1ccc(OC2CCCCC2)c(NC(C)=O)c1 [Example 62, N-{5-[3-butyl-6-(1-methyl-piperidin-4-yloxy)-pyridazin-4-yl]-2-cyclohexyloxy-phenyl}-acetamide dihydrochloride]
6.08	6.17	CCCCc1nnc(OC2CCN(C)CC2)cc1-c1ccc(OC2CCCCC2)c(N(CC(C)C)C(C)=O)c1 [Example 63, N-{5-[3-butyl-6-(1-methyl-piperidin-4-yloxy)-pyridazin-4-yl]-2-cyclohexyloxy-phenyl}-N-isobutyl-acetamide dihydrochloride]
6.06	6.08	CCCCc1nnc(OC2CCN(C)CC2)cc1-c1ccc(OC2CCCCC2)c(N(CC(C)C)S(C)(=O)=O)c1 [Example 64, N-{5-[3-butyl-6-(1-methyl-piperidin-4-yloxy)-pyridazin-4-yl]-2-cyclohexyloxy-phenyl}-N-isobutyl-methanesulfonamide dihydrochloride]
5.67	5.75	CCCCc1nnc(OC2CCN(C)CC2)cc1-c1ccc(OC2CCCCC2)c(-c2ncco2)c1 [Example 65, 3-Butyl-4-(4-cyclohexyloxy-3-oxazol-2-yl-phenyl)-6-(1-methyl-piperidin-4-yloxy)-pyridazine dihydrochloride salt]
5.83	5.74	CCCCc1nnc(OC2CCN(C)CC2)cc1-c1ccc(OC2CCCCC2)c(C(C)=O)c1 [Example 66, 1-{5-[3-Butyl-6-(1-methyl-piperidin-4-yloxy)-pyridazin-4-yl]-2-cyclohexyloxy-phenyl}-ethanone]
5.77	5.49	CCCCc1nnc(OC2CCN(C)CC2)cc1-c1ccc(OC2CCCCC2)c(C#N)c1 [Example 67, 5-[3-Butyl-6-(1-methyl-piperidin-4-yloxy)-pyridazin-4-yl]-2-cyclohexyloxy-benzonitrile dihydrochloride]
5.69	5.60	CCCCc1nnc(OC2CCN(C)CC2)cc1-c1ccc(OC2CCCCC2)c(N2CCCC2=O)c1 [Example 68, 1-{5-[3-Butyl-6-(1-methyl-piperidin-4-yloxy)-pyridazin-4-yl]-2-cyclohexyloxy-phenyl}-pyrrolidin-2-one dihydrochloride]
6.14	6.10	CCCCc1nnc(OC2CCN(C)CC2)cc1-c1ccc(OC2CCCCC2)c(-c2cnn(C)c2)c1 [Example 69, 3-Butyl-4-[4-cyclohexyloxy-3-(1-methyl-1H-pyrazol-4-yl)-phenyl]-6-(1-methyl-piperidin-4-yloxy)-pyridazine dihydrochloride]
5.66	5.53	CCCCc1nnc(OC2CCN(C)CC2)cc1-c1ccc(OC2CCCCC2)c(-c2nnnn2C)c1 [Example 70, 3-Butyl-4-[4-cyclohexyloxy-3-(1-methyl-1H-tetrazol-5-yl)-phenyl]-6-(1-methyl-piperidin-4-yloxy)-pyridazine dihydrochloride]
5.95	5.80	CCCCc1nnc(OC2CCN(C)CC2)cc1-c1ccc(OC2CCCCC2)c(C(=O)OC)c1 [Example 71, 5-[3-Butyl-6-(1-methyl-piperidin-4-yloxy)-pyridazin-4-yl]-2-cyclohexyloxy-benzoic acid methyl ester dihydrochloride]
